Results: PMC5607274, “An iterative compound screening contest method for identifying target protein inhibitors using the tyrosine-protein kinase Yes” (Scientific Reports, 2017)

Each molecule was assayed against T1, human recombinant Yes [a.a. 2–543 (end)] (Homo sapiens, UniProt P07947) (assay: ADP-Glo kinase assay, inhibition rates of Yes phosphorylation activity (first and second screening)). Settings: first screening; mean of n = 4 wells; 10 μmol L−1 compound.
T1 construct: human recombinant Yes [a.a; 2–543 (end)]; purchased BPS Bioscience 40488
T1 sequence (P07947 2-543): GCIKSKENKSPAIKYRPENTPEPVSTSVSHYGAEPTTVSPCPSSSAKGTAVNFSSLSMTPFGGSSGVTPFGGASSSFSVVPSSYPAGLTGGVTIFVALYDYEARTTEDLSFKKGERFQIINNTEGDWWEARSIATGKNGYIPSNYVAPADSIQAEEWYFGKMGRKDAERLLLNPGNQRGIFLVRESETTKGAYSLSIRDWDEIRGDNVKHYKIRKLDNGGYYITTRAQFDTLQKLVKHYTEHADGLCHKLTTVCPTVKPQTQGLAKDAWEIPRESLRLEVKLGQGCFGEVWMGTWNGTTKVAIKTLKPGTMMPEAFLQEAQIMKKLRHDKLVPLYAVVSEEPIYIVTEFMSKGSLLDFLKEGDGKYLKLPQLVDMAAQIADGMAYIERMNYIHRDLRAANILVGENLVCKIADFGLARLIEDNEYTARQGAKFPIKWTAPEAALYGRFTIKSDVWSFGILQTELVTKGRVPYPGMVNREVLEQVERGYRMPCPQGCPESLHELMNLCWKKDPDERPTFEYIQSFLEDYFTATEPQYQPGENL
Type: biochemical
Protocol: All inhibitory assays of the phosphorylation activity of Yes were performed in accordance with the Promega Technical Manual for the ADP-Glo™ Kinase Assay (Fitchburg, WI, USA. Catalog number: V9102). The human recombinant Yes [a.a. 2–543 (end)] was purchased from BPS Bioscience (catalog number: 40488). The details of the assay protocol and reagent information are given elsewhere.
The screening was conducted in three steps consisting of the first screening, the second screening, and the IC50 determination, as can be illustrated in Fig. 1b. First, we determined the inhibition rates of the 1,991 compounds. Each compound was placed in 4 wells of a 384-well plate. In total, 80 compounds were assayed on one plate and the other wells were used for positive and negative controls. The compounds were randomly placed on plates so that compounds proposed by one group were not placed on a plate together. A mean of four inhibition rates for each compound was compared to criteria for the first screening. […] Second, the inhibition rates of the screened compounds were determined on one plate using the same procedure of the first screening, where compounds were dissolved from fresh powder. […] Screened compounds were then evaluated for their IC50 values.

First screening IR (inhibition rate) [%] | Compound
6 | O=C(CSc1nc2ccccc2s1)Nc1cccc2c1C(=O)c1ccccc1C2=O [Compound Z19654122]
7 | CCc1cccc(NC(=O)COC(=O)Cc2cccc3ccccc23)c1 [Compound Z19678477]
1 | CCn1c2ccccc2c2cc(NC(=O)COC(=O)c3c4c(nc5ccccc35)CCCC4)ccc21 [Compound Z19690549]
10 | CC(C)N(c1ccccc1)c1ccc(NC(=O)COC(=O)c2c3c(nc4ccccc24)CCCC3)cc1 [Compound Z19690670]
28 | Cc1ccccc1Nc1nc(N)nc(CSc2ccccc2)n1 [Compound Z19751109]
5 | O=C(COc1c(Br)cc(Br)c2cccnc12)N1CCCCC1 [Compound Z19811005]
3 | COc1ccccc1NC(=O)c1ccc(NC(=O)COc2ccc(-c3ccccc3)cc2)cc1 [Compound Z19829052]
-7 | Cc1ccccc1Nc1nc(N)nc(CSc2nc3ccccc3c(=O)n2CCCN2CCOCC2)n1 [Compound Z19837406]
46 | O=C(CSc1nc2ccccc2c(=O)n1CCCN1CCOCC1)Nc1ccc2ccccc2c1 [Compound Z19837911]
2 | COc1ccc(-n2c(SCC(=O)N3CCCCCC3)nnc2-c2ccc(Cl)cc2)cc1 [Compound Z19871234]
27 | COc1cccc(-c2nnc(SCC(=O)N3CCOCC3)n2-c2ccc(C)cc2)c1 [Compound Z19982748]
-5 | O=C(CSc1nnc(COc2ccccc2Cl)n1-c1ccccc1)N1CCc2ccccc2C1 [Compound Z20151781]
3 | Cc1cccc(C)c1Nc1nnc(SCC(=O)NC(Cc2c[nH]c3ccccc23)C(=O)O)s1 (stereo not shown) [Compound Z20162836]
-9 | Cc1ccc(NC(=O)C(C)Sc2ncnc3sc4c(c23)CCC4)cc1 (stereo not shown) [Compound Z20227630]
-1 | Cc1sc2ncnc(SCC(=O)Nc3ncc(Cl)c(C)c3Cl)c2c1C [Compound Z20229401]
4 | CC(Sc1nnc2ccccn12)C(=O)Nc1nc(-c2ccc(Cl)c(Cl)c2)cs1 (stereo not shown) [Compound Z20241270]
21 | CC(Sc1nnc2ccccn12)C(=O)Nc1nc(-c2ccc(F)c(F)c2)cs1 (stereo not shown) [Compound Z20241790]
8 | Cc1cc(SCC(=O)NC(=O)NC2CCCC2)nc2ccccc12 [Compound Z20243594]
5 | Cc1cc(SCC(=O)c2cc(C)n(-c3ccccc3F)c2C)nc2ccccc12 [Compound Z20243606]
8 | Cc1ccc(C)c(-n2nnnc2SC(C)C(=O)Nc2ccc(Cl)cn2)c1 (stereo not shown) [Compound Z21689617]
-2 | COCCn1cnc2c1c(=O)n(CC(=O)NC(=O)NC1CCCCC1C)c(=O)n2Cc1ccccc1 (stereo not shown) [Compound Z24102979]
9 | CCn1cnc2c1c(=O)n(CC(=O)N1CCC(Cc3ccccc3)CC1)c(=O)n2Cc1ccccc1 [Compound Z24103907]
8 | COC(=O)c1ccc(CNC(=O)Cn2c(=O)c3c(ncn3CCC(C)C)n(Cc3ccccc3)c2=O)cc1 [Compound Z24149625]
4 | C=CCn1c(SCc2cc(=O)n3ccsc3n2)nnc1-c1ccncc1 [Compound Z24172012]
-6 | C=CCn1c(COc2ccccc2F)nnc1SCCCn1c(=O)[nH]c2ccccc21 [Compound Z24188026]
0 | Cc1ccc(C(=O)C(Sc2nnc(C3COc4ccccc4O3)n2C)c2ccc(C)cc2)cc1 (stereo not shown) [Compound Z24312958]
8 | COc1ccc(S(=O)(=O)NCC(=O)OCC(=O)Nc2ccc(Cl)c(C(F)(F)F)c2)cc1 [Compound Z24395276]
0 | C=CCN(CC(=O)Nc1ccc(S(=O)(=O)N2CCOCC2)cc1)S(=O)(=O)c1ccccc1C(F)(F)F [Compound Z24398732]
